This is an account of results in ChEMBL document CHEMBL1201862, “PubChem BioAssay data set” (2004).

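Interpolation was linear, between the two tested concentrations surrounding the appropriate level; five concentrations were tested over 48 hours in 96-well plates. GI50 = concentration required for 50% inhibition of growth.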 Active and inactive are the calls of the source. Cut-off read from the data, not from the text of the source: active = GI50 up to about 1.1 µM and inactive = higher.

Test systems include A498; A549; ACHN; BT-549; CAKI-1; EKVX; HCC 2998; HL-60; HOP-62; HT-29; KM12; LOX IMVI; MDA-MB-435; MDA-N; Malme-3M; NCI-H460; NCI-H522; OVCAR-5; SK-MEL-5.
Assay in all cases: inhibition of tumour cell growth, NCI panel, 48 h

Consider `O=C1c2cc([N+](=O)[O-])cc3cc([N+](=O)[O-])cc(c23)C(=O)N1CCCNCCNCCCN1C(=O)c2cc([N+](=O)[O-])cc3cc([N+](=O)[O-])cc(c23)C1=O`, for which the GI50 in the assay on A498 is 0.769 µM (active); in the assay on A549, 0.0294 µM (active); in the assay with ACHN, 0.0296 µM (active); in the assay on BT-549 it was 1.7 µM (inactive); in the assay with CAKI-1 it was 0.182 µM (active); in the assay on EKVX, 1.05 µM (active). The GI50 in the assay with HCC 2998 was 0.0655 µM (active); with HL-60, 0.0166 µM (active); with HOP-62, 0.185 µM (active); with HT-29, 0.0201 µM (active); in the assay with KM12 it was 0.0582 µM (active); in the assay with LOX IMVI it was 0.0142 µM (active). In addition, the GI50 in the assay with MDA-MB-435 is 0.975 µM (active); with MDA-N, 0.752 µM (active); with Malme-3M, 0.223 µM (active); in the assay with NCI-H460, 0.0169 µM (active); with NCI-H522, 0.0551 µM (active); in the assay with OVCAR-5, 0.268 µM (active). For the same compound, the GI50 in the assay with SK-MEL-5 was 0.287 µM (active).

Take `C[C@H]1[C@H](N2CCCC2)O[Si](C(C)(C)C)(C(C)(C)C)[C@@H]1C`: the GI50 with A498 is > 100 µM (inactive); with A549, > 100 µM (inactive); in the assay with ACHN, 46.8 µM (inactive); in the assay on BT-549 it was > 100 µM (inactive); in the assay on CAKI-1 it was > 100 µM (inactive); in the assay on EKVX it was > 100 µM (inactive). Moreover, the GI50 was > 100 µM (inactive) in the assay with HCC 2998; 13.7 µM (inactive) with HL-60; > 100 µM (inactive) in the assay on HOP-62; > 100 µM (inactive) with HT-29; > 100 µM (inactive) in the assay on KM12; > 100 µM (inactive) in the assay with LOX IMVI. Besides, the GI50 with MDA-MB-435 is > 100 µM (inactive); with MDA-N, > 100 µM (inactive); with Malme-3M it was 59.2 µM (inactive); in the assay on NCI-H522, > 100 µM (inactive); with OVCAR-5 it was > 100 µM (inactive); in the assay on SK-MEL-5, > 100 µM (inactive).

`Cc1ccc(-c2c(C#N)c(-c3ccc(Cl)cc3)c(C#N)c(=O)n2NS(=O)(=O)c2ccccc2)cc1`: the GI50 was 86.7 µM (inactive) in the assay on A498; 68.4 µM (inactive) in the assay on A549; 46.9 µM (inactive) in the assay with ACHN; 34.4 µM (inactive) in the assay on BT-549; 37.2 µM (inactive) in the assay on CAKI-1; 77.4 µM (inactive) with EKVX. Besides, the GI50 in the assay with HCC 2998 is 37.1 µM (inactive); in the assay with HL-60 it was 73.1 µM (inactive); in the assay on HOP-62, 23.4 µM (inactive); in the assay on HT-29, > 100 µM (inactive); with KM12, 81.7 µM (inactive); in the assay with LOX IMVI, 42.3 µM (inactive). For the same compound, the GI50 was > 100 µM (inactive) in the assay with MDA-MB-435; > 100 µM (inactive) in the assay with MDA-N; > 100 µM (inactive) with Malme-3M; 44.4 µM (inactive) with NCI-H460; 38.1 µM (inactive) with NCI-H522; > 100 µM (inactive) with OVCAR-5. Moreover, the GI50 in the assay on SK-MEL-5 was 31.9 µM (inactive).

Regarding `C[C@H]1CC[C@@H]2[C@@H](C)C[C@H]3[C@@H]4C(C)(C)OC(=O)[C@]4(C)C(=O)[C@@]23C1=O`, the GI50 in the assay on A498, with A549, in the assay on ACHN, in the assay with BT-549, in the assay with CAKI-1 and with EKVX was > 100 µM (inactive) throughout. Besides, the GI50 in the assay on HCC 2998, with HL-60, in the assay with HOP-62, in the assay with HT-29, in the assay on KM12 and in the assay on LOX IMVI was > 100 µM (inactive) each time. Besides, the GI50 in the assay on MDA-MB-435 is > 100 µM (inactive); in the assay with MDA-N, > 100 µM (inactive); in the assay on Malme-3M, > 100 µM (inactive); with NCI-H460, > 100 µM (inactive); in the assay on NCI-H522, 50.7 µM (inactive); in the assay on OVCAR-5 it was > 100 µM (inactive). Also, in the assay on SK-MEL-5, the GI50 is > 100 µM (inactive).
